Read-outs that look alike come from different tables or passages of the source.
Experiment: Primary salt screen: XRPD post temperature cycling/evaporation, post drying and post storage at 40° C./75% RH
Format: physicochemical
Protocol: • 30 mg samples of Compound A were weighed out into 2 mL screw cap sample vials for 96 experiments. To these, 200 μL of the appropriate solvent system was added to dissolve the material or form a slurry. See Table 16 for the solvent systems selected for the primary salt screen.
• 1.05 eq. of solid counterions were weighed into six separate vials each and 1 molar stock solutions were prepared for liquid counterions in 5 mL of THF. See Table 17 for selected counterions and mass/volume needed for 1.05 eq. additions. • 100 μL of the appropriate solvent was added to the solid counterions.
The solution/slurry of counterion was added to the solution/slurry of the free base material.
• The samples were placed in an incubator shaker to temperature cycle between ambient and 40° C. over 4 hour cycles. • After ca. 72 hours of temperature cycling, observations were noted, see Table 19.
• Where slurries were obtained, the solids were isolated via centrifugation. Solids and gels were analyzed by XRPD.
Any samples that were clear solutions after temperature cycling were left to evaporate at ambient conditions. See Table 20 for observations made after evaporation. Solids obtained through evaporation were analyzed by XRPD.
• The samples obtained from temperature cycling were dried under vacuum at 40° C. for ca. 20 hours while the samples obtained from evaporation were dried under vacuum at 40° C. for ca. 4 hours. […]

[1] = Compound A + 1.05 eq. counterion (= label), DMSO:Water (50:50 % v/v), stored ca. 20 hours
[2] = Compound A + 1.05 eq. counterion (= label), 1,4-Dioxane
[3] = Compound A + 1.05 eq. counterion (= label), 1,4-Dioxane, dried under vacuum at 40° C.
[4] = Compound A + 1.05 eq. counterion (= label), 1,4-Dioxane, stored ca. 20 hours
[5] = Compound A + 1.05 eq. counterion (= label), DCM
[6] = Compound A + 1.05 eq. counterion (= label), DCM, dried under vacuum at 40° C.
[7] = Compound A + 1.05 eq. counterion (= label), DCM, stored ca. 20 hours
[8] = Compound A + 1.05 eq. counterion (= label), DMSO:Water (50:50 % v/v)
[9] = Compound A + 1.05 eq. counterion (= label), THF
[10] = Compound A + 1.05 eq. counterion (= label), THF:Water (98:2 % v/v)
[11] = Compound A + 1.05 eq. counterion (= label), THF, dried under vacuum at 40° C.
[12] = Compound A + 1.05 eq. counterion (= label), THF, stored ca. 20 hours
[13] = Compound A + 1.05 eq. counterion (= label), DCM:Methanol (50:50 % v/v)
[14] = Compound A + 1.05 eq. counterion (= label), DCM:Methanol (50:50 % v/v), dried under vacuum at 40° C.
[15] = Compound A + 1.05 eq. counterion (= label), DCM:Methanol (50:50 % v/v), stored ca. 20 hours
[16] = Compound A + 1.05 eq. counterion (= label), DMSO:Water (50:50 % v/v), dried under vacuum at 40° C.
[17] = Compound A + 1.05 eq. counterion (= label), THF:Water (98:2 % v/v), dried under vacuum at 40° C.
[18] = Compound A + 1.05 eq. counterion (= label), THF:Water (98:2 % v/v), stored ca. 20 hours

SMILES	XRPD results post 40° C./75% RH [1]	XRPD results post temperature cycling and evaporation [2]	XRPD results post drying [3]	XRPD results post 40° C./75% RH [4]	XRPD results post temperature cycling and evaporation [5]	XRPD results post drying [6]	XRPD results post 40° C./75% RH [7]	XRPD results post temperature cycling and evaporation [8]	XRPD results post temperature cycling and evaporation [9]	XRPD results post temperature cycling and evaporation [10]	XRPD results post drying [11]	XRPD results post 40° C./75% RH [12]	XRPD results post temperature cycling and evaporation [13]	XRPD results post drying [14]	XRPD results post 40° C./75% RH [15]	XRPD results post drying [17]	XRPD results post 40° C./75% RH [18]	also measured
CC(=O)O [Acetic acid]	A t h																	
O=S(=O)(O)c1ccccc1 [Benzenesulfonic acid]	A e h	A t	A t	A t	A e	A e	A e	A e	A t	S e	A t	A t						
O=C(O)c1ccccc1 [Benzoic acid]					A e	A e	A e											
O=C(O)CC(O)(CC(=O)O)C(=O)O [Citric acid]	A t	A t	A t	A t	A e	A e	A e	A t	A e	A e	A e	A e	A e	A e	A e	A e	A e	XRPD results post drying [16]: A t
O=C(O)/C=C/C(=O)O [Fumaric acid]		S t *	A t d	A t	A e	A e	A e		A e		A e	A e	A e	A e	A e			
Cl [Hydrochloric acid]					t S								t S					
O=C(O)/C=C\C(=O)O [Maleic acid]	A t	S t *		A t h	C e	A e d	A e	A t	A e	A e	A e	A e	A e	A e	A e	A e	A e	XRPD results post drying [16]: A t
O=C(O)CC(=O)O [Malonic acid]					A e	A e	A e	A t	A e	A e	A e	A e	A e	A e	A e	A e	A e	
CS(=O)(=O)O [Methanesulfonic acid]	A t	A t	A t	A t	A e	A e	A e	A t		A e						A e	A e	XRPD results post drying [16]: A t
O=P(O)(O)O [Phosphoric acid]		A t	A t	A t	S t *		A t h		S t	S t			S t *					
O=C(O)CCC(=O)O [Succinic acid]					C e	A e d	C e h	A t										
O=S(=O)(O)O [Sulfuric acid]																		XRPD results post 40° C./75% RH: A t and A e; XRPD results post drying: A t and A e; XRPD results post temperature cycling and evaporation: A t and A e
N[C@@H](CCC(=O)O)C(=O)O [l-Glutamic]					C e	C e	C e	A t										
O=C(O)C[C@H](O)C(=O)O [l-Malic acid]					A e	A e	A e	A t	A e		A e	A e						
O=C(O)C(O)C(O)C(=O)O (stereo not drawn) [l-Tartaric acid]		A t	A t	A t	A e	A e	A e	A t	A e	A e	A e	A e	A e	A e	A e	A e	A e	
Cc1ccc(S(=O)(=O)O)cc1 [p-Toluenesulfonic acid]	A t	A t	A t	A t	A e	A e	A e	A t	S t	A e			A e	A e	A e	A e	A e	XRPD results post drying [16]: A t

Source: patent US20240336566A1, “CRYSTALLINE FORMS OF A COMPOUND FOR THE TARGETED DEGRADATION OF THE ANDROGEN RECEPTOR” (Arvinas Operations, Inc., priority 2023, published 2024)
